In US11524934B2, “Phenylamine compounds” (PI INDUSTRIES LTD., priority 2017, dated 2022):

What was measured:
Phakopsora pachyrhizi = Phakopsora pachyrhizi test in soybean (in vivo on plants), preventive activity; conditions: preventive spray on soybean plants, inoculated one day after treatment, disease severity rated vs untreated check
Procedure: Example 8 (In Vivo on Plants): Phakopsora pachyrhizi Test in Soybean
Compounds were dissolved in 2% DMSO/Acetone & then mixed with water to the calibrated spray volume of 50 ml and poured into the spray bottles for further applications.
To test the preventive activity of compounds, healthy young soybean plants raised in the greenhouse were sprayed with active compound preparation at the stated application rates inside the spray cabinets using hallowcone nozzles. One day after treatment, the plants were inoculated with spore suspension containing 2.1×10^6 Phakopsora pachyrhizi inoculum. The inoculated plants were then kept in greenhouse chamber at 25° C. temperature & 90% Relative Humidity for disease expression.
A visual assessment of compound's performance was carried out by rating the disease severity (0-100% scale) on treated plants on 3, 7, 10 & 15 days after application. Efficacy (% control) of the compounds was calculated by comparing the disease rating in the treatment with the one of the untreated control. The sprayed plants were also assessed for compound's plant compatibility by recording symptoms like necrosis, chlorosis & stunting.

Rhizoctonia solani = conditions: 168 h, read-out: control
Pyricularia oryzae = test: microbe, parasite or virus in culture; format: cell-based; conditions: 168 h, read-out: control
Alternaria solani = Alternaria solani (early blight of tomato/potato) in vitro test, radial growth on Potato Dextrose Agar; conditions: 168 h, read-out: control
Septoria lycopersici = Septoria lycopersici (Leaf spot of tomato) in vitro test, radial growth on Potato Dextrose Agar; conditions: 168 h, read-out: control
Botrytis cinerea = Botrytis cinerea (Gray mold) in vitro test, radial growth on Potato Dextrose Agar; conditions: 168 h, read-out: control

## Cc1cc(C(=O)COc2cccc(Cl)c2)c(C)cc1N=CNC#N [Compound 46, N′-(4-(2-(3-chlorophenoxy)acetyl)-2,5-dimethylphenyl)-N-cyanoformimidamide]
Phakopsora pachyrhizi
  pest or weed control at 500 ppm: > 90%

## Cc1cc(C(=O)COc2cccc(Cl)c2)c(C)cc1N=CN(C)C(C)C [Compound 42, N′-(4-(2-(3-chlorophenoxy)acetyl)-2,5-dimethylphenyl)-N-isopropyl-N-methylformimidamide]
Rhizoctonia solani
  inhibition of growth at 300 ppm: > 70%
Phakopsora pachyrhizi
  pest or weed control at 500 ppm: > 90%
Pyricularia oryzae
  inhibition of growth at 300 ppm: > 70%
Alternaria solani
  inhibition of growth at 300 ppm: > 70%
Septoria lycopersici
  inhibition of growth at 300 ppm: > 70%

## Cc1cc(C(=O)COc2cccc(Cl)c2)c(C)cc1N=CN1CCCCC1 [Compound 41, 2-(3-chlorophenoxy)-1-(2,5-dimethyl-4-((piperidin-1-ylmethylene)amino)phenyl)ethan-1-one]
Rhizoctonia solani
  inhibition of growth at 300 ppm: > 70%
Phakopsora pachyrhizi
  pest or weed control at 500 ppm: > 90%
Alternaria solani
  inhibition of growth at 300 ppm: > 70%

## CCN(C)C=Nc1cc(C)c(C(=O)CSc2ccccc2Br)cc1Cl [Compound 39, N′-(4-(2-((2-bromophenyl)thio)acetyl)-2-chloro-5-methylphenyl)-N-ethyl-N-methylformimidamide]
Phakopsora pachyrhizi
  pest or weed control at 500 ppm: > 90%

## C=CCN(C)C=Nc1cc(C)c(C(=O)COc2cccc(Cl)c2)cc1C [Compound 43, N-allyl-N′-(4-(2-(3-chlorophenoxy)acetyl)-2,5-dimethylphenyl)-N-methylformimidamide]
Phakopsora pachyrhizi
  pest or weed control at 500 ppm: > 90%

## CCN(C)C=Nc1cc(C)c(C(=O)CSc2ccccc2Br)cc1C [Compound 30, N′-(4-(2-((2-bromophenyl)thio)acetyl)-2,5-dimethylphenyl)-N-ethyl-N-methylformimidamide]
Rhizoctonia solani
  inhibition of growth at 300 ppm: > 70%
Pyricularia oryzae
  inhibition of growth at 300 ppm: > 70%
Alternaria solani
  inhibition of growth at 300 ppm: > 70%
Septoria lycopersici
  inhibition of growth at 300 ppm: > 70%
Botrytis cinerea
  inhibition of growth at 300 ppm: > 70%

## Cc1ccc(SCC(=O)c2cc(C)c(N=CN3CCOCC3)cc2C)cc1C [Compound 49, 1-(2,5-dimethyl-4-((morpholinomethylene)amino)phenyl)-2-((3,4-dimethylphenyl)thio)ethan-1-one]
Phakopsora pachyrhizi
  pest or weed control at 500 ppm: > 90%

## Cc1ccc(SCC(=O)c2cc(C)c(N=CN(C)C(C)C)cc2C)cc1C [Compound 47, N′-(4-(2-((3,4-dimethylphenyl)thio)acetyl)-2,5-dimethylphenyl)-N-isopropyl-N-methylformimidamide]
Rhizoctonia solani
  inhibition of growth at 300 ppm: > 70%
Phakopsora pachyrhizi
  pest or weed control at 500 ppm: > 90%
Pyricularia oryzae
  inhibition of growth at 300 ppm: > 70%
Alternaria solani
  inhibition of growth at 300 ppm: > 70%

## CCN(C)C=Nc1cc(C)c(C(=O)COc2ccccc2Br)cc1C [Compound 34, N′-(4-(2-(2-bromophenoxy)acetyl)-2,5-dimethylphenyl)-N-ethyl-N-methylformimidamide]
Rhizoctonia solani
  inhibition of growth at 300 ppm: > 70%
Pyricularia oryzae
  inhibition of growth at 300 ppm: > 70%
Alternaria solani
  inhibition of growth at 300 ppm: > 70%
Septoria lycopersici
  inhibition of growth at 300 ppm: > 70%

## CCN(C)C=Nc1cc(C)c(C(=O)COc2ccc(Cl)cc2Cl)cc1C [Compound 94, N′-(4-(2-(2,4-dichlorophenoxy)acetyl)-2,5-dimethylphenyl)-N-ethyl-N-methylformimidamide]
Rhizoctonia solani
  inhibition of growth at 300 ppm: > 70%
Pyricularia oryzae
  inhibition of growth at 300 ppm: > 70%
Alternaria solani
  inhibition of growth at 300 ppm: > 70%
Septoria lycopersici
  inhibition of growth at 300 ppm: > 70%
Botrytis cinerea
  inhibition of growth at 300 ppm: > 70%

## CCN(C)C=Nc1cc(C)c(C(=O)COc2ccc(C)cc2Cl)cc1C [Compound 93, N′-(4-(2-(2-chloro-4-methylphenoxy)acetyl)-2,5-dimethylphenyl)-N-ethyl-N-methylformimidamide]
Rhizoctonia solani
  inhibition of growth at 300 ppm: > 70%
Pyricularia oryzae
  inhibition of growth at 300 ppm: > 70%
Alternaria solani
  inhibition of growth at 300 ppm: > 70%
Septoria lycopersici
  inhibition of growth at 300 ppm: > 70%
Botrytis cinerea
  inhibition of growth at 300 ppm: > 70%

## CCN(C)C=Nc1cc(C)c(C(=O)CSc2ccc(Cl)cc2)cc1Cl [Compound 38, N′-(2-chloro-4-(2-((4-chlorophenyl)thio)acetyl)-5-methylphenyl)-N-ethyl-N-methylformimidamide]
Phakopsora pachyrhizi
  pest or weed control at 500 ppm: > 90%

## CCN(C)C=Nc1cc(C)c(C(=O)COc2ccc(Cl)cc2)cc1C [Compound 16, N′-(4-(2-(4-chlorophenoxy)acetyl)-2,5-dimethylphenyl)-N-ethyl-N-methylformimidamide]
Pyricularia oryzae
  inhibition of growth at 300 ppm: > 70%
Alternaria solani
  inhibition of growth at 300 ppm: > 70%
Septoria lycopersici
  inhibition of growth at 300 ppm: > 70%

## CCN(C)C=Nc1cc(C)c(C(=O)COc2ccccc2F)cc1Cl [Compound 44, N′-(2-chloro-4-(2-(2-fluorophenoxy)acetyl)-5-methylphenyl)-N-ethyl-N-methylformimidamide]
Phakopsora pachyrhizi
  pest or weed control at 500 ppm: > 90%

## CCN(C)C=Nc1cc(C)c(C(=O)COc2cc(Cl)ccc2C)cc1C [Compound 96, N′-(4-(2-(5-chloro-2-methylphenoxy)acetyl)-2,5-dimethylphenyl)-N-ethyl-N-methylformimidamide]
Rhizoctonia solani
  inhibition of growth at 300 ppm: > 70%
Pyricularia oryzae
  inhibition of growth at 300 ppm: > 70%
Alternaria solani
  inhibition of growth at 300 ppm: > 70%
Septoria lycopersici
  inhibition of growth at 300 ppm: > 70%
Botrytis cinerea
  inhibition of growth at 300 ppm: > 70%

## CCN(C)C=Nc1cc(C)c(C(=O)COc2cc(C)ccc2C)cc1C [Compound 95, N′-(4-(2-(2,5-dimethylphenoxy)acetyl)-2,5-dimethylphenyl)-N-ethyl-N-methylformimidamide]
Rhizoctonia solani
  inhibition of growth at 300 ppm: > 70%
Pyricularia oryzae
  inhibition of growth at 300 ppm: > 70%
Alternaria solani
  inhibition of growth at 300 ppm: > 70%
Septoria lycopersici
  inhibition of growth at 300 ppm: > 70%
Botrytis cinerea
  inhibition of growth at 300 ppm: > 70%

## CCN(C)C=Nc1cc(C)c(C(=O)COc2ccccc2Br)cc1Cl [Compound 31, N′-(4-(2-(2-bromophenoxy)acetyl)-2-chloro-5-methylphenyl)-N-ethyl-N-methylformimidamide]
Rhizoctonia solani
  inhibition of growth at 300 ppm: > 70%
Pyricularia oryzae
  inhibition of growth at 300 ppm: > 70%
Alternaria solani
  inhibition of growth at 300 ppm: > 70%
Septoria lycopersici
  inhibition of growth at 300 ppm: > 70%

## CCN(C)C=Nc1cc(C)c(C(=O)COc2cccc(C)c2)cc1Cl [Compound 26, N′-(2-chloro-5-methyl-4-(2-(m-tolyloxy)acetyl)phenyl)-N-ethyl-N-methylformimidamide]
Phakopsora pachyrhizi
  pest or weed control at 500 ppm: > 90%
Alternaria solani
  inhibition of growth at 300 ppm: > 70%

## C=CCN(C)C=Nc1cc(C)c(C(=O)CSc2ccc(C)c(C)c2)cc1C [Compound 48, N-allyl-N′-(4-(2-((3,4-dimethylphenyl)thio)acetyl)-2,5-dimethylphenyl)-N-methylformimidamide]
Phakopsora pachyrhizi
  pest or weed control at 500 ppm: > 90%

## Cc1cc(C(=O)COc2cccc(Cl)c2)c(C)cc1N=CN1CCOCC1 [Compound 40, 2-(3-chlorophenoxy)-1-(2,5-dimethyl-4-((morpholinomethylene)amino)phenyl)ethan-1-one]
Phakopsora pachyrhizi
  pest or weed control at 500 ppm: > 90%
Alternaria solani
  inhibition of growth at 300 ppm: > 70%

## CCN(C)C=Nc1cc(C)c(C(=O)COc2ccc(F)cc2)cc1C [Compound 33, N-ethyl-N′-(4-(2-(4-fluorophenoxy)acetyl)-2,5-dimethylphenyl)-N-methylformimidamide]
Rhizoctonia solani
  inhibition of growth at 300 ppm: > 70%
Pyricularia oryzae
  inhibition of growth at 300 ppm: > 70%
Alternaria solani
  inhibition of growth at 300 ppm: > 70%
Septoria lycopersici
  inhibition of growth at 300 ppm: > 70%

## CCN(C)C=Nc1cc(C)c(C(=O)COc2ccc(F)cc2)cc1Cl [Compound 45, N′-(2-chloro-4-(2-(4-fluorophenoxy)acetyl)-5-methylphenyl)-N-ethyl-N-methylformimidamide]
Phakopsora pachyrhizi
  pest or weed control at 500 ppm: > 90%

## CCN(C)C=Nc1cc(C)c(C(=O)CSc2ccc(Cl)c(Cl)c2)cc1Cl [Compound 50, N′-(2-chloro-4-(2-((3,4-dichlorophenyl)thio)acetyl)-5-methylphenyl)-N-ethyl-N-methylformimidamide]
Phakopsora pachyrhizi
  pest or weed control at 500 ppm: > 90%
